Assay results taken from US11166907B2, “Non-covalently assembled conductive hydrogel” (DENOVOMATRIX GMBH, priority 2017, dated 2021).
Values belong to the compound of their own block, whether it stands above or below them.

Legend:
HeLa cells = test: Cytotoxic effect of drug released from drug-encapsulating hydrogels; format: cell-based; details: drug released from rGO:PEDOT:PSS/starPEG-KA7 hydrogels, diluted 10× or 100×
Procedure: The released compounds were diluted 10× or 100× times for the treatment.

[1] = Drug encapsulation and release from conductive hydrogels; format: physicochemical
Procedure: Because the networks of PEG-peptide/PEDOT:PSS hydrogel and the PEG-peptide/rGO:PEDOT:PSS hydrogels are amphipathic, they can bind to both hydrophobic and charged hydrophilic compounds. The encapsulation of hydrophilic and hydrophobic drug compounds was tested. PEDOT:PSS was premixed with either hydrophilic compound doxorubicin or hydrophobic compound paclitaxel, followed by adding 5 kD-PEG-KA7. […] Doxorubicin can be encapsulated with a concentration of 0.8 mg/mL, while 0.1 mg/mL paclitaxel can be encapsulated into the hydrogel. Paclitaxel in excess formed precipitate at the bottom. rGO:PEDOT:PSS was premixed with either doxorubicin or paclitaxel, followed by adding starPEG-KA7. […] Doxorubicin can be encapsulated with a concentration as high as 0.8 mg/mL, while 1.0 mg/mL paclitaxel can be encapsulated into the hydrogel. The hydrogels loaded with drugs were then incubated in PBS, and the release of drugs was monitored.

[2] = Electrochemical properties (cyclic voltammetry, impendency); format: physicochemical
Description: The cyclic voltammetry (CV) curve of 5 kD-PEG-KA7/PEDOT:PSS is typical of PEDOT:PSS-based materials, showing the oxidation peak between +500 mV and +650 mV and reduction occurring between −100 mV and −50 mV (FIG. 3A). The structure-function relationship between chemical composition of the modular system and electrochemical properties was investigated

[3] = Hydrogel formation by mixing PEG-peptide conjugate with anionic polymer; format: physicochemical; details: (BX)n oligopeptide coupled to PEG-5 k (FIG. 1B)
Procedure: 14-kD-heparin ([…], 2.5 mM) and star-PEG-peptide conjugates (6.25 mM, 3.125 mM) were dissolved in physiologic phosphate buffer solution (1×PBS) water or cell culture medium with 2% fetal bovine serum (FBS). These solutions were dissolved in a ratio of 1:4 heparin:star-PEG-peptide-conjugate by obtaining 0.5 mM or 5 mM 14-kD-heparin and 2.5 mM or 5 mM star-PEG-peptide. The ligand/mol ratio was 2:1, 1:1 and 1:5 relative to the mol ratio of 14-kD-heparin and the star-PEG-peptide-conjugate. The mixtures were incubated within a time frame of one hour to overnight at room temperature […]. The gelling time spanned from present up to several hours depending on the applied peptide motif. A hydrogel was formed when it survived the addition of physiological phosphate buffer solution (1×PBS) pH 7.4 to the mixture after the incubation of the mixture over the prior night without mixing with the added solution.
L1-(BX)n peptides comprising a (BX)n peptide selected from KA7, KA5, KA3, KS7, KG7, RA7, and RG7, where X is alanine, glycine or serine (FIG. 1B), were synthesized. The thiol group of cysteine was used to link the peptides to maleimide-functionalized PEG by Michael-type addition reaction, while the tryptophan was used to facilitate the monitoring during HPLC purification and quantification (supporting information). It was first tested whether sulfated oligosaccharide could be replaced by PEDOT:PSS to form a stable hydrogel. starPEG-KA7 in PBS was mixed with PEDOT:PSS aqueous solution to final concentrations of 2.5 mM and 1%, respectively. […] Without conjugation to the oligopeptide, neither maleimide-functionalized nor amino-functionalized PEG formed a hydrogel with PEDOT:PSS.
Moreover, it is much easier to separate a linear PEG chain with two peptides from that with only one peptide, as compared to purify the starPEG with 4 peptides from a mixture of lower degree of modification. Therefore, in the following study, the hydrogel formation using linear PEG-peptides was investigated. […] To incorporate a cell adhesive motiv into the modular network, the RGDSP (SEQ ID NO: 25) sequence was added as part of the linker to the KA7 oligopeptide. […] L2 contains the RGDSP (SEQ ID NO: 25) sequence.
To test whether the non-covalent assembling approach can also be applied to other conductive polymers, the hydrogel formation using PEG-peptide or starPEG-peptide with graphene derivatives was investigated. While graphene has very poor water solubility, graphene oxide (GO) was used. […] Apparently, the carboxylic acid presented on graphene is not sufficient to form stable crosslinking with positively charged peptide-polymer.
Reducing GO in the present of PSS also led to water-soluble and conductive material rGO/PSS. Hydrogel formation using rGO:PSS or rGO:PEDOT:PSS (FIG. 5A) was tested. […]

[4] = 5 kD-PEG-KA7/PEDOT:PSS hydrogel
[5] = rGO:PEDOT:PSS/starPEG-KA7 hydrogel
[6] = the hydrogel (description, type not specified)

concentration that can be encapsulated [1, 4]: 800 µg/mL
concentration that can be encapsulated [1, 5]: 800 µg/mL
concentration that can be encapsulated [1, 6]: 800 µg/mL
Compound: COc1cccc2c1C(=O)c1c(O)c3c(c(O)c1C2=O)C[C@@](O)(C(=O)CO)C[C@@H]3O[C@H]1C[C@H](N)[C@H](O)[C@H](C)O1 [Doxorubicin, doxorubicin]
effect on HeLa cells (HeLa cells): cytotoxic effect

concentration that can be encapsulated [1, 4]: 100 µg/mL
concentration that can be encapsulated [1, 5]: 1000 µg/mL
concentration that can be encapsulated [1, 6]: 1000 µg/mL
Compound: CC(=O)O[C@H]1C(=O)[C@@]2(C)[C@H]([C@H](OC(=O)c3ccccc3)[C@]3(O)C[C@H](OC(=O)[C@H](O)[C@@H](NC(=O)c4ccccc4)c4ccccc4)C(C)=C1C3(C)C)[C@]1(OC(C)=O)CO[C@@H]1C[C@@H]2O [paclitaxel]
effect on HeLa cells (HeLa cells): cytotoxic effect

Compound: CWGGRGDSP [L2, 14]
change of impendency / conductivity compared to 5 kD-PEG-KA7/PEDOT:PSS ([2]; alanine replaced by serine, or RGDSP added within linker): minor effect on the conductivity

Compound: KAKAKAKAKA [KA5]
hydrogel formation with PEDOT:PSS [3]: formed homogeneous hydrogels

Compound: KAKAKAKAKAKAKA [KA7]
hydrogel formation with PEDOT:PSS [3]: formed homogeneous hydrogels

Compound: KSKSKSKSKSKSKS [KS7]
hydrogel formation with PEDOT:PSS [3]: formed homogeneous hydrogels

Compound: RARARARARARARA [RA7]
hydrogel formation with PEDOT:PSS [3]: formed homogeneous hydrogels

effect on conductivity of hydrogel ([2]; 1 mM heparin in hydrogel of 1% PEDOT:PSS and 2.5 mM starPEG-KA7, versus 1% PEDOT:PSS and 2.5 mM 5 kD-PEG-KA7): enhanced the conductivity
Compound: heparin
